Measurements reported in article PMC10299588, “Bromotyrosine-Derived Metabolites from a Marine Sponge Inhibit Pseudomonas aeruginosa Biofilms” (International Journal of Molecular Sciences, 2023).
Values after ≈ are worked out from the molar mass of the structure shown. “Also recorded” adds a separate entry of the source. Read-outs that look alike come from different tables or passages of the source.

What was measured:
[1] = system: PAO1ΔpslA (Psl deletion mutant); assay: Biofilm inhibition assay (OD600 growth and resazurin biofilm viability); type: cell-based, Pseudomonas aeruginosa
Experimental: Figure 2 Biofilm assays to identify compounds that prevent biofilm formation. Biofilm inhibition assay. P. aeruginosa cultures were seeded into 384-well plates after dispensing compounds and antibiotics. The plates were incubated for 24 h at 37 °C followed by recording bacterial growth (OD600) and measuring the viability of biofilm bacteria using resazurin.
The overnight cultures at 37 °C in LB medium were washed once with sterile saline 0.9% (w/v) and adjusted to an OD600 of 0.05, and 1% inoculum was transferred into a fresh LB medium. Following incubation at 37 °C, 200 rpm for 6–6.5 h to reach the mid-log phase, the cells were washed once with sterile saline 0.9% and diluted to an OD600 of 0.01. Then, 45 µL aliquots were dispensed into 384-well plates (Greiner Bio-One, Kremsmünster, Austria, catalog no. 781091). In biofilm inhibition assays, test compounds (5 µL) were loaded prior to the addition of bacteria. The plates were incubated for 24 h at 37 °C in static conditions. The effects of compounds on bacterial growth and viability of biofilm bacteria were determined by the OD600 and resazurin metabolic assay, respectively. The final concentrations of DMSO in the assays were 1–2%. The negative controls or untreated cultures consisted of inoculum and different concentrations of DMSO. Antibiotic ciprofloxacin (0.25 µg/mL and 25 µg/mL) was used as positive controls. The initial OD600 and final OD600 were read before incubation at 37 °C and after 24 h incubation, respectively, followed by assessment of biofilm viability by resazurin metabolic assay. The experiments were carried out with three technical replicates and repeated at least twice. The growth inhibition was calculated as a function of the percentage of the total bacterial inhibition using Equation (1), where AB is the OD600 of LB medium, and AT0 and ATf are the OD600 recorded at inoculating time and at the end of the assay. (1) % Inhibition=100 × [ 1 − [OD600 (Asample Tf− Asample T0)−(AB Tf − AB T0)/OD600 (Anegative control Tf− Anegative control T0)−(AB Tf − AB T0)]]
Resazurin sodium salt (Sigma-Aldrich, St. Louis, MI, USA) was dissolved in Milli-Q water at 0.2% (w/v) and filter sterilized. The solution was stored at −20 °C in the dark. The assay was performed as previously described with modification. The cultures were withdrawn, and the plates were washed three times with sterile water using the plate washer (BioTek). To remove the remaining water in the wells, the plates were tapped with autoclaved paper towels. An amount of 50 µL of diluted RSZ solution in LB medium was added into each well, followed by incubation at 37 °C for 5–6 h. A microplate reader (BioTek Synergy 2) was used to measure the fluorescence intensity (excitation 530 nm, emission 590 nm). Data collected were determined as a function of fluorescence percentage using Equation (2), where FB is the fluorescence of the diluted RSZ solution in LB medium in the absence of P. aeruginosa cells. (2) % Inhibition=[(Fnegative control −FB )−(Fsample −FB )/(Fnegative control − FB )]×100

PAO1 biofilms = assay: Fluorescence microscopy of biofilms (SYTO9/propidium iodide); type: cell-based, Pseudomonas aeruginosa
Experimental: (§1) Biofilms of wild-type PAO1 and isogenic biofilm matrix component mutants were treated with ianthelliformisamines or ciprofloxacin alone and the combinations. Their biofilms were simultaneously stained with SYTO9 (green) and propidium iodide (red). Cells with intact membranes were stained green, while cells with compromised membranes were stained red.
(§2) For biofilm bacteria imaging, bacteria were cultured, treated with test compounds, and washed, as previously mentioned in the biofilm inhibition assay. The biofilm bacteria were stained using a LIVE/DEAD BacLight bacterial viability kit (Molecular Probes, Inc., Eugene, OR, USA), which consists of SYTO9 (green; staining cells with intact membrane) and propidium iodide (red; staining cells with compromised membrane). Images were captured using a high-content imaging system Operetta CLS (Perkin Elmer, Waltham, MA, USA) with a 60× water-immersion objective.

PAO1ΔpslA biofilms = assay: as above; type: cell-based, Pseudomonas aeruginosa
Experimental: as §1, §2

PDO300 biofilms = assay: as above; type: cell-based, Pseudomonas aeruginosa; conditions: for biofilm after treatment: compound alone
Experimental: as §1, §2

PAO1ΔpelF biofilms = type: cell-based, Pseudomonas aeruginosa
Experimental: as §1, §2

[2] = Stability in liver microsomes; type: in vitro ADME, mouse; conditions: for hepatic extraction: calculated from microsomal half-life, fu = 1 assumed; for level of hepatic extraction: classification system of Houston 1994; for half-life at 1 µM: male, CD-1, mouse, liver microsomes
Experimental: (§3) The metabolic assays were performed based on a previously described method. […] The final organic (ACN) concentration in the incubation tubes was 1%. […] Samples (50 μL) were removed at t = 0 (immediately after reaction start), 5, 10, 20, 30, and 60 min. Samples were added to microcentrifuge tubes containing 150 μL of ice-cold acetonitrile containing internal standard (clotrimazole; for […] = 10.0 ng/mL + 0.5% (v/v) formic acid; for 1 and 2 = 2.0 ng/mL + 0.5% (v/v) formic acid; for VPL = 20.0 ng/mL + 0.1% (v/v) formic acid). Tubes were centrifuged (13,000× g, 5 min), and ~135 μL of supernatant transferred to polypropylene 96-well plates for analysis.
(§4) Chromatographic separation was achieved using a biphenyl column [Kinetix, 100 mm × 4.6 mm, 2.6 μm; Phenomenex (Sydney, Australia)], coupled with a gradient elution with mobile phases containing acetonitrile/H2O/0.5% formic acid. Analysis was conducted in positive ion multiple reaction monitoring (MRM) mode with argon as the collision gas. Optimum MS/MS conditions were established prior to incubations by direct infusion of individual solutions of 1, 2, and 3 into the LC-MS/MS. To ensure adequate sensitivity of analysis, multiple mass transitions were summed for all three test compounds.
(§5) LN % remaining vs. time data for each data set were fitted to an exponential decay function to determine the first-order rate constant (k) for substrate depletion. For Equations (5)–(7), scaling parameters used were described elsewhere.

[3] = Stability in liver microsomes; type: in vitro ADME, human; conditions: for half-life at 1 µM: both sexes, human, liver microsomes
Experimental: as §3, §4, §5

P. aeruginosa = system: P. aeruginosa; design: method as in PMID 24801877; conditions: previous work, different culture medium and inoculum possible; cited from earlier work
[4] = compound alone (1 86.2, 2 69.1, 3 53.1/106.2 µg/mL)
[5] = in combination with ciprofloxacin
[6] = pH 7.4, no NRS, compound 1 between 20 and 60 min, compound 2 over 30 min, read-out: half-life of degradation, negative control (no NRS added)
[7] = pH 7.4, with NADPH regeneration system, 1.0 µM, 0.5 mg/mL microsomes, read-out: half-life of degradation

Structure (SMILES)	interaction with ciprofloxacin on biofilms (PAO1 biofilms)	biofilm after treatment (PAO1 biofilms; [4])	biofilm after treatment (PAO1ΔpslA biofilms; [5])	effect in combination with ciprofloxacin (PDO300 biofilms)	biofilm after treatment (PDO300 biofilms)	effect in combination with ciprofloxacin (PAO1ΔpelF biofilms)	metabolic stability [2]	hepatic extraction [2]	level of hepatic extraction [2]	half-life at 1 µM [2, 6]	half-life at 1 µM [2, 7]	metabolic stability [3]	MIC (P. aeruginosa)	also measured
COc1c(Br)cc(/C=C/C(=O)NCCCNCCCCN)cc1Br [Compound 2, ianthelliformisamine B]	no effect	remained unaffected	eradicated	synergistic effects	slightly reduced	synergistic effects	moderate degradation; also recorded: moderately degraded	0.42	intermediate	90 min	42.8 ± 7.6 min	moderate degradation; also recorded: moderately degraded	> 138.2 µg/mL	interaction with ciprofloxacin ([1]; ciprofloxacin 1/3 and 1/4 MIC): no synergistic interaction; effect on growth and biofilm formation ([1]; compound alone): marginal effects; half-life at 1 µM ([3]; pH 7.4, no NRS, 30-min incubation, read-out: half-life of degradation, negative control (no NRS added)): 103 min; half-life at 1 µM [3, 7]: 35.7 ± 2.1 min; hepatic extraction ([3]; calculated from microsomal half-life, fu = 1 assumed): 0.61; level of hepatic extraction ([3]; classification system of Houston 1994): intermediate
COc1c(Br)cc(/C=C/C(=O)NCCCNCCCCNCCCNC(=O)/C=C/c2cc(Br)c(OC)c(Br)c2)cc1Br [Compound 3, ianthelliformisamine C]	antagonistically	slightly reduced			completely eradicated	no effect	metabolically stable					metabolically stable	~ 26.55 µg/mL	synergistic interaction with ciprofloxacin, planktonic forms and biofilms ([1]; compound 53.1 µg/mL): negligible synergistic interactions; biofilm inhibition ([1]; compound 106.2 µg/mL + sub-lethal doses of ciprofloxacin): ~ 100%; killing of planktonic and biofilm populations ([1]; compound alone 106.2 µg/mL): completely killed; planktonic growth inhibition ([1]; compound alone 106.2 µg/mL): independently inhibited planktonic growth; biofilm after treatment (PAO1ΔpslA biofilms; alone): completely dispersed the biofilm; biofilm after treatment (PAO1ΔpelF biofilms; compound alone): no effect
COc1c(Br)cc(/C=C/C(=O)NCCCNCCCCNCCCN)cc1Br [Compound 1, ianthelliformisamine A]	synergistically	remained unaffected	eradicated	synergistic effects	slightly reduced	synergistic effects	moderate degradation	0.48	intermediate	~45 min	38.2 min	substantial instability; also recorded: significant instability	172.4 µg/mL (≈ 331 µM)	biofilm after treatment (PAO1 biofilms; compound 86.2 µg/mL + ciprofloxacin 1/3 MIC): Complete biofilm inhibition
